Test: GC/MS analysis of incorporation of methyl jasmonate in nanocarriers
Type: physicochemical
Experimental: The class of dendrimers used was PAMAM. […] The experimental data was obtained using a GC with a column temperature of 50° C., the injection temperature of 250° C., Flow control mode linear, total flow 50.0 mL/min., and column flow of 1.70 mL/min. The percentage relative to the incorporation of methyl jasmonate inside β-CD was 98-99% and for dendrimer PAMAM it was more than 95%. Comparing peak 1 with 2, peak 2 is methyl Jasmonate alone and peak 1 is the inclusion compounds formed. In both cases peak 1 is clearly different and proves the molecular association.

- percentage relative to the incorporation of methyl jasmonate (dendrimer PAMAM): more than 95%
- percentage relative to the incorporation of methyl jasmonate (inside β-CD): 98-99%
Compound: CC/C=C\CC1C(=O)CCC1CC(=O)OC (centres unmarked) [methyl jasmonate]
